According to ChEMBL document CHEMBL6096719, “Kidney Targeting Smart Antibiotic Discovery: Multimechanism Pleuromutilins for Pyelonephritis Therapy” (J Med Chem, 2025):
Calls of active or inactive are those of the source. The rule behind the calls is not given here.

Tests used:
[1] = Aqueous solubility of the compound incubated for 12 hrs by UV-Vis spectrophotometry; type: physicochemical; conditions: buffer
[2] = system: Staphylococcus aureus; assay: Antibacterial activity against methicillin-resistant Staphylococcus aureus ATCC 43300 assessed as inhibition of bacterial growth incubated for 24 hrs by broth microdilution method; type: functional
[3] = system: Acinetobacter baumannii; assay: Antibacterial activity against Acinetobacter baumannii ATCC 19606 assessed as inhibition of bacterial growth incubated for 24 hrs by broth microdilution method; type: functional
[4] = system: Staphylococcus aureus; assay: Antibacterial activity against methicillin-resistant Staphylococcus aureus 575 assessed as inhibition of bacterial growth incubated for 24 hrs by broth microdilution method; type: functional
[5] = system: Staphylococcus aureus; assay: Antibacterial activity against methicillin-resistant Staphylococcus aureus 206 assessed as inhibition of bacterial growth incubated for 24 hrs by broth microdilution method; type: functional
[6] = system: Staphylococcus aureus; assay: Antibacterial activity against methicillin-resistant Staphylococcus aureus 222 assessed as inhibition of bacterial growth incubated for 24 hrs by broth microdilution method; type: functional
[7] = system: Enterococcus; assay: Antibacterial activity against vancomycin-resistant Enterococcus 80 assessed as inhibition of bacterial growth incubated for 24 hrs by broth microdilution method; type: functional
[8] = system: Klebsiella pneumoniae; assay: Antibacterial activity against multidrug-resistant Klebsiella pneumoniae 893 assessed as inhibition of bacterial growth incubated for 24 hrs by broth microdilution method; type: functional
[9] = Cytotoxicity against human A549 cells assessed as reduction in cell viability incubated for 24 hrs by CCK8 assay; type: toxicity, cell-based
[10] = system: Mesomycoplasma hyopneumoniae; assay: Anti-mycoplasma activity against Mycoplasma hyopneumoniae J NCTC10110 assessed as inhibition of bacterial growth incubated for 6 to 7 days by broth microdilution method; type: functional; conditions: time 6-7 day
[11] = system: Mesomycoplasma hyopneumoniae; assay: Anti-mycoplasma activity against Mycoplasma hyopneumoniae MH-LH assessed as inhibition of bacterial growth incubated for 6 to 7 days by broth microdilution method; type: functional; conditions: time 6-7 day
[12] = system: Mesomycoplasma hyorhinis; assay: Anti-mycoplasma activity against Mycoplasma hyorhinis BTS-7 NCTC10130 assessed as inhibition of bacterial growth incubated for 3 to 5 days by broth microdilution method; type: functional; conditions: time 3-5 day
[13] = system: Chlamydia pneumoniae; assay: Anti-mycoplasma activity against Chlamydophila pneumoniae CWL-029 VR1310 assessed as inhibition of bacterial growth incubated for 3 to 5 days by broth microdilution method; type: functional; conditions: time 3-5 day
[14] = system: Chlamydia pneumoniae; assay: Anti-mycoplasma activity against Chlamydophila pneumoniae TW183 VR-2282 assessed as inhibition of bacterial growth incubated for 3 to 5 days by broth microdilution method; type: functional; conditions: time 3-5 day
[15] = system: Staphylococcus aureus; assay: Antibacterial activity against methicillin-resistant Staphylococcus aureus ATCC33591 assessed as post-antibiotic effect at 0.25 ug/ml incubated for 1 hr followed by washing and incubation in MHB medium for 10 hrs and later cultured on agar plate for overnight; type: functional; conditions: dose 0.25 µg/ml
[16] = system: Escherichia coli; assay: Antibacterial activity against Escherichia coli ATCC25922 assessed as post-antibiotic effect at 0.25 ug/ml incubated for 1 hr followed by washing and incubation in MHB medium for 10 hrs and later cultured on agar plate for overnight; type: functional; conditions: dose 0.25 µg/ml
[17] = system: Escherichia coli; assay: Antibiofilm activity against Escherichia coli ATCC25922 assessed as eradication of biofilms at 0.5 ug/ml incubated for 4 hrs by field emission scanning electron microscopy; type: functional, organism-based; conditions: dose 0.5 µg/ml
[18] = system: Cell membrane; assay: Disruption of cell membrane in methicillin-resistant Staphylococcus aureus ATCC33591 assessed as disrupted, furrowed, crumpled cell envelope at 0.125 to 0.5 ug/ml incubated for 2 hrs by propidium iodide staining based confocal laser scanning microscopy; type: subcellular; conditions: dose 0.125-0.5 µg/ml
[19] = system: Cell membrane; assay: Disruption of cell membrane in Escherichia coli ATCC25922 assessed as disrupted, furrowed, crumpled cell envelope at 0.125 to 0.5 ug/ml incubated for 2 hrs by propidium iodide staining based confocal laser scanning microscopy; type: subcellular; conditions: dose 0.125-0.5 µg/ml
[20] = system: Cell membrane; assay: Disruption of cell membrane in methicillin-resistant Staphylococcus aureus ATCC33591 assessed as induction of cell death by measuring increase in propidium iodide fluorescence intensity at 0.5 ug/ml incubated for 2 hrs by fluorescence field microscopy; type: subcellular; conditions: dose 0.5 µg/ml
[21] = system: Cell membrane; assay: Disruption of cell membrane in Escherichia coli ATCC25922 assessed as induction of cell death by measuring increase in propidium iodide fluorescence intensity at 0.5 ug/ml incubated for 2 hrs by bright field microscopy; type: subcellular; conditions: dose 0.5 µg/ml
[22] = system: Cell membrane; assay: Disruption of cell membrane in Escherichia coli ATCC25922 assessed as induction of cell death by measuring increase in propidium iodide fluorescence intensity at 0.5 ug/ml incubated for 2 hrs by fluorescence field microscopy; type: subcellular; conditions: dose 0.5 µg/ml
[23] = system: Cell membrane; assay: Disruption of cell membrane in methicillin-resistant Staphylococcus aureus ATCC33591 assessed as decrease in intracellular ATP content at 0.125 to 0.25 ug/ml incubated for 30 mins by luminescence based analysis; conditions: dose 0.125-0.25 µg/ml
[24] = system: Cell membrane; assay: Disruption of cell membrane in Escherichia coli ATCC25922 assessed as leakage of bacterial cell contents by measuring increase in conductivity of bacterial solution at MIC measured for 6 hrs by conductivity meter analysis
[25] = system: Staphylococcus aureus; assay: (§1) Antibacterial activity against methicillin-resistant Staphylococcus aureus ATCC33591 infected in systemic intraperitoneal infection Kunming mouse model assessed as decrease in inflammation and neutrophil infiltration in liver at 5 mg/kg, ip treated at 1 hr post-infection and measured after 7 days by Hematoxylin-Eosin staining based analysis; type: functional, organism-based; conditions: time 7.0 day
[26] = system: Staphylococcus aureus; assay: as §1, with “kidney” for “liver”; type: functional, organism-based; conditions: time 7.0 day
[27] = system: Staphylococcus aureus; assay: as §1, with “inflammation,” for “inflammation and”, “and disordered spleen structure” for “in liver”; type: functional, organism-based; conditions: time 7.0 day
[28] = system: Staphylococcus aureus; assay: Antibacterial activity against methicillin-resistant Staphylococcus aureus ATCC33591 infected in systemic intraperitoneal infection Kunming mouse model assessed as decrease in bacterial colonies in kidneys administered intraperitoneally at 1 hr post-infection and measured after 7 days; type: functional, organism-based; conditions: dose 5-20 mg/kg, route ip, time 7.0 day
[29] = system: Staphylococcus aureus; assay: Antibacterial activity against methicillin-resistant Staphylococcus aureus ATCC33591 infected in systemic intraperitoneal infection Kunming mouse model assessed as increase in animal's survival rate at 20 mg/kg, ip treated at 1 hr post-infection and measured for 7 days; type: functional, organism-based; conditions: time 7.0 day
[30] = Cmax in Sprague-Dawley rat at 5 mg/kg, iv; type: ADME, organism-based; conditions: in vivo
[31] = AUC (0 to 24 hrs) in Sprague-Dawley rat at 5 mg/kg, iv; type: ADME, organism-based; conditions: in vivo
[32] = Observed apparent volume of distribution in Sprague-Dawley rat at 5 mg/kg, iv; type: ADME, organism-based; conditions: in vivo, read-out: Vz
[33] = Tmax in Sprague-Dawley rat at 10 mg/kg, po; type: ADME, organism-based; conditions: in vivo
[34] = Observed apparent volume of distribution during terminal phase in Sprague-Dawley rat at 10 mg/kg, po; type: ADME, organism-based; conditions: in vivo, read-out: Vz/F_obs
[35] = system: Escherichia coli; assay: Antibacterial activity against Escherichia coli ATCC25922 infected in pyelonephritis C57BL/6 mouse model assessed as saturated bacterial clearance at >=5 mg/kg, iv qd for 3 days administered at 2 days post-infection; type: functional, organism-based; conditions: time 3.0 day
[36] = system: Escherichia coli; assay: Antibacterial activity against Escherichia coli ATCC25922 infected in pyelonephritis C57BL/6 mouse model assessed as recovery of neutrophils count in blood at 3 to 10 mg/kg, iv qd for 3 days administered at 2 days post-infection; type: functional, organism-based; conditions: dose 3-10 mg/kg, time 3.0 day

Q: Which results are given for `C=C[C@]1(C)C[C@@H](OC(=O)CSc2nc3cc[n+](Cc4ccc(C)cc4)cc3[nH]2)[C@]2(C)[C@H](C)CC[C@]3(CCC(=O)[C@H]32)[C@@H](C)[C@@H]1O.[Br-]`?
A: solubility at 12 h [1]: 573 µg/mL; MIC [2]: < 1 µg/mL; MIC [3]: < 1 µg/mL; MIC [4]: 1 µg/mL; MIC [5]: 1 µg/mL; MIC [6]: 4 µg/mL; MIC [7]: 4 µg/mL; MIC [8]: 2 µg/mL; CC50 at 24 h [9]: > 100 µM; MIC [10]: < 0.04 µg/mL; MIC [11]: < 0.04 µg/mL; MIC [12]: < 0.04 µg/mL; MIC [13]: < 0.04 µg/mL; MIC [14]: < 0.04 µg/mL; PAE [15]: 1.53 h; PAE [16]: 1.78 h; Activity [17]: Active; Almost Complete Eradication Of Bacteria Observed; Activity [18]: Active; Activity [19]: Active; Activity [20]: Active; Activity [21]: Active; Activity [22]: Active; Activity [23]: Active; Activity [24]: Active; Activity [25]: Active; Nearly Restoration Of Normal Histology Observed; Activity [26]: Active; Nearly Restoration Of Normal Histology Observed; Activity [27]: Active; Nearly Restoration Of Normal Histology Observed; Activity [28]: Active; Superior Efficacy Compared To Valnemulin Observed; Activity [29]: Active; Slight Decrease In Activity Compared To Lower Dose Of Drug Concentration Observed; Diminished Therapeutic Effects To Drug At Higher Concentrations Observed; Cmax [30]: 25600 ng/mL; AUC(0-t) [31]: 16200 ng·h/mL; Vd [32]: 0.511 L/kg; Tmax [33]: 30 min; Vd/F [34]: 1.43 L/kg; Activity [35]: Active; Activity [36]: Active
